# Assay results: the supplement of paper PMC6470124
# What was measured:
# [1] = absolute recovery over vacuum-assisted evaporative concentration; higher = better recovery; conditions: enrichment method: VEC
# In short: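 Samples of influent (6 mL), effluent (15 mL) and surface or nanopure water (60 mL) were spiked with standards before or after concentration, or left unspiked, at 200 ng/L (nanopure/surface) or 1000 ng/L (wastewater), adjusted by class and compound. Concentration was by evaporation at 55 °C and 20 mbar to about 0.3 mL, followed by adjustment to 0.4 mL and centrifugation. Internal standards were then added for LC-HRMS/MS analysis. Absolute recovery was (response ratio pre − unspiked)/(post − unspiked) × 100, using averages of ≥ 2 replicates.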
# [2] = absolute recovery over mixed-bed multilayer solid-phase extraction; higher = better recovery; conditions: enrichment method: SPE
# In short: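 Absolute recovery rests on background-corrected response ratios of pre- versus post-spiked samples, averaged over at least two replicates. Wastewater (100–250 mL, pH 6.5, glass-fibre filtered) was spiked at 1000 ng/L and unfiltered nanopure water (1000 mL) at 200 ng/L, before or after three-layer mixed-bed cartridge extraction or not at all, with exceptions for some classes. Analysis after internal standard addition used liquid chromatography with high-resolution tandem mass spectrometry in both ionisation modes.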
# [3] = LC retention time (Atlantis T3, 5-95% MeOH gradient, 0.1% formic acid); higher = more retained / less polar
# In short: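 Retention times were recorded for reference standards (purity ≥ 95%) on a polar reversed-phase C18 column (Atlantis T3, 3 × 150 mm, 3 μm) at 0.3 mL/min. Elution used water and methanol, each with 0.1% formic acid, in a gradient from 5 to 95% methanol over 17.5 min. Detection was by high-resolution tandem mass spectrometry on a QExactive Plus, with positive and negative electrospray in separate runs. Peaks were found and integrated in TraceFinder (5 ppm tolerance, at least three points per peak) and then checked by hand.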
SMILES,absolute recovery ([1]; wastewater effluent) [%],absolute recovery ([1]; wastewater influent) [%],absolute recovery ([2]; nanopure water) [%],absolute recovery ([2]; surface water) [%],absolute recovery ([2]; wastewater effluent) [%],absolute recovery ([2]; wastewater influent) [%],LC retention time [3] [min]
COc1ccc(C(=CC(=O)N2CCOCC2)c2ccc(Cl)cc2)cc1OC [Dimethomorph],116,95.7,98.4,81.4,81.4,91.4,19.5
O=c1[nH]sc2ccccc12 [Benzisothiazolin-3-on (=BIT)],86.7,22.6,79.3,76.3,72,142,14.2
CN(C)c1nc(=O)n(C2CCCCC2)c(=O)n1C [Hexazinon],106,92.6,96.4,93.7,94.3,88.8,17.2
CN(C)C(=O)Nc1ccc(Cl)cc1 [Monuron],103,106,99.5,–,94.3,90.3,16.9
Cn1ncc(N)c(Cl)c1=O [Chloridazon-methyl-desphenyl],99.2,104,91.5,102,97,101,10.2
CCS(=O)(=O)c1nc2ccccn2c1S(=O)(=O)[N-]C(=O)Nc1nc(OC)cc(OC)n1 [Sulfosulfuron],108,98.9,101,94.4,94.6,102,19.4
CC(CN1c2ccccc2CCc2ccccc21)C[NH+](C)C (stereo not given) [Trimipramin],101,104,89.9,102,95.3,54.3,16.2
CCCN(CCOc1c(Cl)cc(Cl)cc1Cl)C(=O)n1ccnc1 [Prochloraz],103,101,99.3,96.4,93.9,92.3,20.6
O=C1Nc2ccc(Cl)cc2C(C#CC2CC2)(C(F)(F)F)O1 (stereo not given) [Efavirenz],105,124,102,104,92.4,134,20.5
CCN(CC)C(=O)C(C)Oc1cccc2ccccc12 (stereo not given) [Napropamid],88.4,90.9,96.6,90.8,89.3,96.1,20.3
COCCOCCOCCOCCOC [Tetraglyme],103,112,80.5,83.7,83.5,99.6,13.2
CCNc1nc(O)nc(NC(C)C)n1 [Atrazin-2-Hydroxy],102,102,97.8,98,94.5,90,11.4
Cc1ccc2[nH]nnc2c1 [5-Methyl-Benzotriazol],102,100,95.7,–,–,97.5,15.4
C[NH+](C)CCC=C1c2ccccc2CCc2ccccc21 [Amitriptyline E],110,108,84.5,106,96.3,58.1,16.1
c1ccc2c(c1)Cc1ccccc1N1CC[NH2+]CC21 (stereo not given) [Normianserin],94.1,84.1,79.1,95.2,83.6,85.6,14.8
CC(=O)Nc1nnc(S([NH-])(=O)=O)s1 [Acetazolamide],106,107,90.8,95.6,94.2,96.6,10.5
O=C([O-])c1ccc(-c2ccccc2-c2nn[nH]n2)cc1 [Valsartan-acid],–,104,96.4,101,–,95.2,16.4
Clc1ccccc1C(c1ccccc1)(c1ccccc1)n1ccnc1 [Clotrimazol],111,110,93.4,90.3,85.9,90.1,16.6
C[NH2+]C(C)C(=O)c1ccc(C)cc1 (stereo not given) [Mephedron (=4-Methylmethcathinon)],76.7,71.4,62.3,66.2,62.8,72.7,11.4
Clc1cccc(N2CC[NH2+]CC2)c1 [1-(3-Chlorophenyl)-piperazine],103,99.6,70.3,74.7,68.1,79.3,12.6
O=C([O-])C=C(F)C(F)(F)C(F)(F)C(F)(F)C(F)(F)C(F)(F)F [6-2-FTUCA],143,97.7,69.6,89.6,97.8,77.9,23.2
NC(=O)N1c2ccccc2C=Cc2ccccc21 [Carbamazepin],104,98.2,99,97.8,93.5,93.2,17.6
C=CC1=C(C(=O)[O-])N2C(=O)C([NH3+])C2SC1 (stereo not given) [7-Amino-3-vinyl-3-cephem-4-carboxylic-acid],95.6,96.5,47.7,–,–,37.9,6.11
C[NH+](C)CCOC(c1ccccc1)c1ccccc1 [Diphenhydramine],104,103,88.9,97,91.1,77.8,14.6
O=C(NCCc1ncc(C(F)(F)F)cc1Cl)c1ccccc1C(F)(F)F [Fluopyram],105,54.9,101,93.4,93,102,19.9
C[NH+]1CCC23c4c5ccc(O)c4OC2C(O)C=CC3C1C5 (stereo not given) [Morphin],104,99.7,81.1,91.3,87.9,89.6,7.4
CSc1nc2cc(Oc3cccc(Cl)c3Cl)c(Cl)cc2[nH]1 [Triclabendazol],86.4,102,59.4,111,88.5,61.3,21.8
CC(C)N1C(=O)N(c2ccccc2)CSC1=NC(C)(C)C [Buprofezin],75.3,100,67.9,86.2,87.5,118,22

# Other lines, results leading:
absolute recovery ([1]; wastewater effluent) [%],absolute recovery ([1]; wastewater influent) [%],absolute recovery ([2]; nanopure water) [%],absolute recovery ([2]; surface water) [%],absolute recovery ([2]; wastewater effluent) [%],absolute recovery ([2]; wastewater influent) [%],LC retention time [3] [min],SMILES
103,103,86.4,84.3,90.1,84.6,13,CCN(CC)C(=O)Nc1ccc(OCC(O)C[NH2+]C(C)(C)C)c(C(C)=O)c1 (stereo not given) [Celiprolol]
107,106,70.5,70.9,76.1,59.5,22.2,CCC(C)C(=O)OC1CC(C)C=C2C=CC(C)C(CCC3CC(O)CC(=O)O3)C21 (stereo not given) [Lovastatin]
116,102,107,96.8,101,92.8,19,COC(=O)c1ccc(I)cc1S(=O)(=O)[N-]C(=O)Nc1nc(C)nc(OC)n1 [Iodosulfuron-methyl]
105,103,96.4,94.1,93.9,92.9,19.3,CC(C)(Oc1ccc(Cl)cc1)C(=O)[O-] [Clofibric-acid]
105,101,96.3,93.3,94.1,98.9,18.3,CNC(=O)Nc1ccc(C(C)C)cc1 [Isoproturon-monodemethyl (=1-(4-Isoprophenyl)-3-methylurea)]
101,103,130,106,87.9,–,21.6,O=C([O-])c1ccccc1Nc1cccc(C(F)(F)F)c1 [Flufenamic-Acid]
91.1,91.9,79.8,90.2,85.5,82.8,16.2,C[NH2+]CCC(Oc1ccc(C(F)(F)F)cc1)c1ccccc1 (stereo not given) [Fluoxetin]
83.5,142,72.3,74.2,67.2,81.4,6.08,CNC(=C[N+](=O)[O-])NCCS(=O)Cc1ccc(C[NH+](C)C)o1 (stereo not given) [Ranitidin-S-oxid]
91.3,–,61.2,10.8,21.2,33.4,18.4,Cc1onc(-c2ccccc2)c1C(=O)NC1C(=O)N2C1SC(C)(C)C2C(=O)[O-] (stereo not given) [Oxacillin]
109,107,96.8,88,92.8,87.9,18.2,COCCN(C(=O)C(=O)[O-])c1c(C)cccc1C [Dimethachlor-OXA]
107,102,94.8,93.1,93.3,89.5,12.3,COCCc1ccc(OCC(O)C[NH2+]C(C)C)cc1 (stereo not given) [Metoprolol]
100,102,69,74.5,73.8,65.1,10,CC(=O)Nc1c(I)c(NC(C)=O)c(I)c(C(=O)[O-])c1I [Diatrizoate (=Amidotrizoic-acid)]
106,99.5,85.2,92.4,86.9,87.6,21,CC(C)c1nc(CN(C)C(=O)NC(C(=O)NC(Cc2ccccc2)CC(O)C(Cc2ccccc2)NC(=O)OCc2cncs2)C(C)C)cs1 (stereo not given) [Ritonavir]
108,90.7,96,92.9,96.6,15.6,16.1,COC(=O)c1cc(C(=O)OC)cc(S(=O)(=O)[O-])c1 [Dimethyl-5-Sulfoisophthalate]
